# Earlier results, collected in patent US20030073069A1, “Drug rescue by redesign of ADMET/PK properties” (priority 2001, published 2003).
# Tested on: P450
# Conditions: induction of a P450
row,SMILES,"No. of currently known drug interactions that involve the compound, Induction"
1,CC(=O)Nc1ccc(O)cc1 [acetaminophen],4
2,C[C@H]1C[C@H]2[C@@H]3CCC4=CC(=O)C=C[C@]4(C)[C@@]3(F)[C@@H](O)C[C@]2(C)[C@@]1(O)C(=O)CO [betamethasone],15
3,O=C1CC2(CCCC2)CC(=O)N1CCCCN1CCN(c2ncccn2)CC1 [buspirone],2
4,C[C@]12CCC(=O)C=C1CC[C@@H]1[C@@H]2C(=O)C[C@@]2(C)[C@H]1CC[C@]2(O)C(=O)CO [cortisone],15
5,CC(C)Nc1cccnc1N1CCN(C(=O)c2cc3cc(NS(C)(=O)=O)ccc3[nH]2)CC1 [delavirdine],2
6,COc1ccc2c(c1)[C@]13CCCC[C@@H]1[C@H](C2)N(C)CC3 [detromethorphan],1
7,C[C@@H]1C[C@H]2[C@@H]3CCC4=CC(=O)C=C[C@]4(C)[C@@]3(F)[C@@H](O)C[C@]2(C)[C@@]1(O)C(=O)CO [dexamethasone],14
8,CC(C)N(CCC(C(N)=O)(c1ccccc1)c1ccccn1)C(C)C (stereo not drawn) [disopyramide],3
9,C[C@H]1c2cccc(O)c2C(=O)C2=C(O)[C@]3(O)C(=O)C(C(N)=O)=C(O)[C@@H](N(C)C)[C@@H]3[C@@H](O)[C@@H]21 [doxycycline],3
10,C[C@]12CCC(=O)C=C1CC[C@H]1[C@@H]3CC[C@](O)(C(=O)CO)[C@@]3(C)C[C@H](O)[C@@]12F [fludrocortisone],14
11,O=C(CCCN1CCC(O)(c2ccc(Cl)cc2)CC1)c1ccc(F)cc1 [haloperidol],3
12,CCC(C)n1ncn(-c2ccc(N3CCN(c4ccc(OCC5COC(Cn6cncn6)(c6ccc(Cl)cc6Cl)O5)cc4)CC3)cc2)c1=O (stereo not drawn) [itraconazole],5
13,CC(=O)N1CCN(c2ccc(OCC3COC(Cn4ccnc4)(c4ccc(Cl)cc4Cl)O3)cc2)CC1 (stereo not drawn) [ketoconazole],2
14,CCC(=O)C(CC(C)N(C)C)(c1ccccc1)c1ccccc1 (stereo not drawn) [methadone],8
15,Clc1ccc(COC(Cn2ccnc2)c2ccc(Cl)cc2Cl)c(Cl)c1 (stereo not drawn) [miconazole],2
16,Cc1c(O)cccc1C(=O)N[C@@H](CSc1ccccc1)[C@H](O)CN1C[C@H]2CCCC[C@H]2C[C@H]1C(=O)NC(C)(C)C [nelfinavir],2
17,CCC1(c2ccccc2)C(=O)NC(=O)NC1=O [phenobarbital],1
18,C=C[C@H]1C[N@@]2CC[C@H]1C[C@H]2[C@H](O)c1ccnc2ccc(OC)cc12 [quinine],2
19,CC(C)c1nc(CN(C)C(=O)N[C@H](C(=O)N[C@@H](Cc2ccccc2)C[C@H](O)[C@H](Cc2ccccc2)NC(=O)OCc2cncs2)C(C)C)cs1 [ritonavir],3

# Tested on: P450
# Conditions: not given
row,SMILES,"No. of currently known drug interactions that involve the compound, Inhibition"
1,CN1C[C@H](C(=O)N[C@]2(C)O[C@@]3(O)[C@@H]4CCCN4C(=O)[C@H](Cc4ccccc4)N3C2=O)C[C@@H]2c3cccc4[nH]cc(c34)C[C@H]21 [dihydroergotamine],7
2,CN1C[C@H](C(=O)N[C@]2(C)O[C@@]3(O)[C@@H]4CCCN4C(=O)[C@H](Cc4ccccc4)N3C2=O)C=C2c3cccc4[nH]cc(c34)C[C@H]21 [ergotamine],7
3,O=C1CN=C(c2ccccc2)c2cc(Cl)ccc2N1CC1CC1 [prazapam],2
4,CCC(=O)O[C@](Cc1ccccc1)(c1ccccc1)[C@H](C)CN(C)C [propoxyphene],1

# Same assay, conditions: inhibition of a P450
row,SMILES,"No. of currently known drug interactions that involve the compound, Inhibition"
1,CC(=O)CC(c1ccc([N+](=O)[O-])cc1)c1c(O)c2ccccc2oc1=O (stereo not drawn) [acenocoumarol],1
2,CC(=O)c1ccc2c(c1)N(CCCN1CCN(CCO)CC1)c1ccccc1S2 [acetophenazine],1
3,Clc1ccc2c(c1)C(N1CCNCC1)=Nc1ccccc1O2 [amoxapine],3
4,COc1ccc(CCN2CCC(Nc3nc4ccccc4n3Cc3ccc(F)cc3)CC2)cc1 [astemizole],10
5,CC(C)COCC(CN(Cc1ccccc1)c1ccccc1)N1CCCC1 (stereo not drawn) [bepridil],1
6,COCc1c(C(C)C)nc(C(C)C)c(/C=C/[C@@H](O)C[C@@H](O)CC(=O)O)c1-c1ccc(F)cc1 [cerivastatin],5
7,CCN(CC)CCCC(C)Nc1ccnc2cc(Cl)ccc12 (stereo not drawn) [chloroquine],1
8,CN(C)CCCN1c2ccccc2Sc2ccc(Cl)cc21 [chlorpromazine],1
9,COc1cc(N)c(Cl)cc1C(=O)NC1CCN(CCCOc2ccc(F)cc2)CC1OC (stereo not drawn) [cisapride],15
10,COc1ccc(C(=O)Nc2ccccc2CCC2CCCCN2C)cc1 (stereo not drawn) [encainide],2
11,O=C(NCC1CCCCN1)c1cc(OCC(F)(F)F)ccc1OCC(F)(F)F (stereo not drawn) [flecainide],2
12,OCCN1CCN(CCCN2c3ccccc3Sc3ccc(C(F)(F)F)cc32)CC1 [fluphenazine],1
13,CC(C)n1c(/C=C/C(O)CC(O)CC(=O)O)c(-c2ccc(F)cc2)c2ccccc21 (stereo not drawn) [fluvastatin],1
14,CC[C@H](C)C(=O)O[C@H]1C[C@@H](C)C=C2C=C[C@H](C)[C@H](CC[C@@H]3C[C@@H](O)CC(=O)O3)[C@H]21 [lovastatin],5
15,CN1CCCCC1CCN1c2ccccc2Sc2ccc([S+](C)[O-])cc21 (stereo not drawn) [mesoridazine],1
16,COc1ccc2c(c1)N(C[C@H](C)CN(C)C)c1ccccc1S2 [methotrimeprazine],1
17,COc1ccc2[nH]c([S+]([O-])Cc3ncc(C)c(OC)c3C)nc2c1 (stereo not drawn) [omeprazole],1
18,OCCN1CCN(CCCN2c3ccccc3Sc3ccc(Cl)cc32)CC1 [perphenazine],1
19,CCC(c1ccccc1)c1c(O)c2ccccc2oc1=O (stereo not drawn) [phenprocoumon],1

row,SMILES,"No. of currently known drug interactions that involve the compound, Inhibition"
1,O=c1[nH]c2ccccc2n1C1CCN(CCCC(c2ccc(F)cc2)c2ccc(F)cc2)CC1 [pimozide],3
2,CN1C(C(=O)Nc2ccccn2)=C(O)c2ccccc2S1(=O)=O [piroxicam],1
3,CC[C@H](C)C(=O)O[C@H]1C[C@H](O)C=C2C=C[C@H](C)[C@H](CC[C@@H](O)C[C@@H](O)CC(=O)O)[C@H]21 [pravastatin],1
4,CN(C)CCCN1c2ccccc2Sc2ccccc21 [promazine],1
5,CC(CN1c2ccccc2Sc2ccccc21)N(C)C (stereo not drawn) [promethazine],1
6,CCC(=O)c1ccc2c(c1)N(CC(C)N(C)C)c1ccccc1S2 (stereo not drawn) [propiomazine],1
7,CNCCCC1c2ccccc2C=Cc2ccccc21 [protriptyline],3
8,CO[C@H]1/C=C/O[C@@]2(C)Oc3c(C)c(O)c4c(c3C2=O)C2=NC3(CCN(CC(C)C)CC3)NC2=C(NC(=O)/C(C)=C\C=C\[C@H](C)[C@H](O)[C@@H](C)[C@@H](O)[C@@H](C)[C@H](OC(C)=O)[C@@H]1C)C4=O [rifabutin],6
9,CO[C@H]1/C=C/O[C@@]2(C)Oc3c(C)c(O)c4c(O)c(c(/C=N/N5CCN(C6CCCC6)CC5)c(O)c4c3C2=O)NC(=O)/C(C)=C\C=C\[C@H](C)[C@H](O)[C@@H](C)[C@@H](O)[C@@H](C)[C@H](OC(C)=O)[C@@H]1C [rifapentine],2
10,CC(C)(C)NC(=O)[C@@H]1C[C@@H]2CCCC[C@@H]2CN1C[C@@H](O)[C@H](Cc1ccccc1)NC(=O)[C@H](CC(N)=O)NC(=O)c1ccc2ccccc2n1 [saquinavir],2
11,CCSc1ccc2c(c1)N(CCCN1CCN(C)CC1)c1ccccc1S2 [thiethylperazine],1
12,CC(C)(C)NC[C@H](O)COc1nsnc1N1CCOCC1 [timolol],1
13,CCCCNC(=O)NS(=O)(=O)c1ccc(C)cc1 [tolbutamide],1
14,CN1CCN(CCCN2c3ccccc3Sc3ccc(C(F)(F)F)cc32)CC1 [trifluoperazine],1
15,CN(C)CCCN1c2ccccc2Sc2ccc(C(F)(F)F)cc21 [triflupromazine],1
16,CCCC(CCC)C(=O)O [valproic acid],1
17,CC[C@]1(O)C[C@@H]2CN(CCc3c([nH]c4ccccc34)[C@@](C(=O)OC)(c3cc4c(cc3OC)N(C)[C@H]3[C@@](O)(C(=O)OC)[C@H](OC(C)=O)[C@]5(CC)C=CCN6CC[C@]43[C@@H]65)C2)C1 [vinblastine],4
18,CC[C@]1(O)C[C@H]2CN(CCc3c([nH]c4ccccc34)[C@@](C(=O)OC)(c3cc4c(cc3OC)N(C=O)[C@H]3[C@@](O)(C(=O)OC)[C@H](OC(C)=O)[C@]5(CC)C=CCN6CC[C@]43[C@@H]65)C2)C1 [vincristine],4
